Measured values published in patent US20250042889A1, “3CLPRO PROTEASE INHIBITOR” (SHANGHAI QILU PHARMACEUTICAL RESEARCH AND DEVELOPMENT …, priority 2021, published 2025).

target: SARS-COV-2 3CLpro/Mpro protease (Severe acute respiratory syndrome coronavirus 2 (2019-nCoV) (SARS-CoV-2), UniProt P0DTD1); assay: Inhibitory effect on SARS-COV-2 3CLpro/Mpro protease by fluorescence resonance energy transfer; assay type: biochemical; conditions: activity intervals A-D, read-out: IC50 (nM), Inhibition on SARS-CoV-2 3CLpro/Mpro protease

| Structure (SMILES) | IC50 |
| --- | --- |
| Cc1cc(C(=O)N2CCC[C@@H](Nc3c(C(=O)N4CCC(F)(F)CC4)cc(Br)cc3[N+](=O)[O-])C2)cc(=O)[nH]1 [Example 108] | 10 to 50 nM |
| O=C(N[C@H]1CCCC[C@H]1Nc1c(C(=O)N2CCC(N3CCOCC3)CC2)cc(Br)cc1C(F)(F)F)c1cncc2cc(Cl)ccc12 [Example 109] | 10 to 50 nM |
| COCCN1CCN(C(=O)c2cc(Br)cc([N+](=O)[O-])c2N[C@@H]2CCCC[C@@H]2NC(=O)c2cncc3cc(Cl)ccc23)CC1 [Example 111] | < 10 nM |
| C[C@@H]1CN(C(=O)c2cc(Br)cc(C(F)(F)F)c2N[C@@H]2CCCC[C@@H]2NC(=O)c2cncc3cc(Cl)ccc23)C[C@H](C)O1 [Example 112] | 10 to 50 nM |
| C[C@@H]1CN(C(=O)c2cc(Br)cc([N+](=O)[O-])c2N[C@@H]2CCCC[C@@H]2NC(=O)c2cncc3cc(Cl)ccc23)C[C@H](C)O1 [Example 113] | < 10 nM |
| Nc1cncc(C(=O)N2CCC[C@@H](Nc3c(C(=O)N4CCOCC4)cc(Br)cc3[N+](=O)[O-])C2)c1 [Example 114] | 10 to 50 nM |
| C[C@@H]1CN(C(=O)c2cc(Br)cc([N+](=O)[O-])c2N[C@@H]2CCCN(C(=O)c3cncc(I)c3)C2)C[C@H](C)N1 [Example 115] | 10 to 50 nM |
| O=C(c1cc(Br)cc([N+](=O)[O-])c1N[C@@H]1CCCN(C(=O)c2cc(=O)[nH]c3ccccc23)C1)N1CCCCC1 [Example 116] | < 10 nM |
| O=C(c1cc(Br)cc([N+](=O)[O-])c1N[C@@H]1CCCN(C(=O)c2cc(=O)[nH]c3cc(Cl)ccc23)C1)N1CCOCC1 [Example 117] | 10 to 50 nM |
| O=C(N[C@H]1CCCC[C@H]1Nc1c(C(=O)N2CCN(CCO)CC2)cc(Br)cc1[N+](=O)[O-])c1cncc2cc(Cl)ccc12 [Example 118] | 10 to 50 nM |
| O=C(c1cc(Br)cc([N+](=O)[O-])c1N[C@@H]1CCCN(C(=O)c2cc(=O)[nH]c3ccccc23)C1)N1CCOCC1 [Example 119] | 10 to 50 nM |
| COCCN1CCN(C(=O)c2cc(Br)cc([N+](=O)[O-])c2N[C@@H]2CCCN(C(=O)c3cncc(I)c3)C2)CC1 [Example 120] | < 10 nM |
| C[C@@H]1CN(C(=O)c2cc(Br)cc([N+](=O)[O-])c2N[C@@H]2CCCC[C@@H]2NC(=O)c2cc(=O)[nH]c3ccccc23)C[C@H](C)O1 [Example 121] | < 10 nM |
| O=C(N[C@H]1CCCC[C@H]1Nc1c(C(=O)N2C[C@@H](O)CO2)cc(Br)cc1[N+](=O)[O-])c1cncc2cc(Cl)ccc12 [Example 122] | 10 to 50 nM |
| CN1CCN(C(=O)c2cc(Br)cc([N+](=O)[O-])c2N[C@@H]2CCCC[C@@H]2NC(=O)c2cncc3cc(Cl)ccc23)CC1 [Example 123] | < 10 nM |
| O=C(N[C@H]1CCCC[C@H]1Nc1c(C(=O)N2CC3(CCOCC3)C2)cc(Br)cc1[N+](=O)[O-])c1cncc2cc(Cl)ccc12 [Example 124] | 10 to 50 nM |
| C[C@@H]1CN(C(=O)c2cc(Br)cc([N+](=O)[O-])c2N[C@@H]2CCN(C(=O)c3cncc4cc(Cl)ccc34)C2)C[C@H](C)N1 [Example 125] | < 10 nM |
| O=C(N[C@H]1CCCC[C@H]1Nc1c(C(=O)N2CC[C@@H](O)C2)cc(Br)cc1C(F)(F)F)c1cncc2cc(Cl)ccc12 [Example 126] | 10 to 50 nM |
| O=C(c1cc(Br)cc([N+](=O)[O-])c1N[C@@H]1CCCN(C(=O)c2cc(=O)[nH]c3cc(Cl)ccc23)C1)N1CCCCC1 [Example 128] | 10 to 50 nM |
| C[C@@H]1CN(C(=O)c2cc(Br)cc([N+](=O)[O-])c2N[C@@H]2CCCN(C(=O)c3cc(=O)[nH]c4cc(Cl)ccc34)C2)C[C@H](C)O1 [Example 129] | 10 to 50 nM |

| Structure (SMILES) | IC50 |
| --- | --- |
| C[C@H]1CN(C(=O)c2cc(Br)cc([N+](=O)[O-])c2N[C@@H]2CCCN(C(=O)c3cc(=O)[nH]c4ccccc34)C2)CCO1 [Example 130] | 10 to 50 nM |
| C[C@@H]1CN(C(=O)c2cc(Br)cc([N+](=O)[O-])c2N[C@@H]2CCCC[C@@H]2NC(=O)c2cncc3cc(Cl)ccc23)C[C@H](C)N1 [Example 131] | 10 to 50 nM |
| O=C(N[C@H]1CCCC[C@H]1Nc1c(C(=O)N2CCC3(CC2)COC3)cc(Br)cc1[N+](=O)[O-])c1cncc2cc(Cl)ccc12 [Example 132] | 10 to 50 nM |
| C[C@@H]1CN(C(=O)c2cc(Br)cc([N+](=O)[O-])c2N[C@@H]2CCCN(C(=O)c3cc(=O)[nH]c4ccccc34)C2)C[C@H](C)O1 [Example 133] | 10 to 50 nM |
| O=C(c1cc(Br)cc([N+](=O)[O-])c1N[C@@H]1CCCN(C(=O)c2cc(=O)[nH]c3ccccc23)C1)N1CCC(N2CCOCC2)CC1 [Example 134] | 10 to 50 nM |
| C[C@@H]1CN(C(=O)c2cc(Br)cc([N+](=O)[O-])c2N[C@@H]2CCCN(C(=O)c3cncc4cc(Cl)ccc34)C2)C[C@H](C)N1 [Example 135] | 10 to 50 nM |
| O=C(N[C@H]1CCCC[C@H]1Nc1c(C(=O)N2CCC(N3CCOCC3)CC2)cc(Br)cc1[N+](=O)[O-])c1cc(=O)[nH]c2ccccc12 [Example 136] | < 10 nM |
| O=C(NN1CCOCC1)c1cc(Br)cc([N+](=O)[O-])c1N[C@@H]1CCCN(C(=O)c2cncc(I)c2)C1 [Example 137] | 10 to 50 nM |
| O=C(c1cc(Br)cc([N+](=O)[O-])c1N[C@@H]1CCCN(C(=O)c2cc(=O)[nH]c3ccccc23)C1)N1CCN(CC(F)(F)F)CC1 [Example 138] | 10 to 50 nM |
| C[C@@H]1CN(C(=O)c2cc(Br)cc([N+](=O)[O-])c2N[C@@H]2CCCN(C(=O)c3cc(=O)[nH]c4ccccc34)C2)C[C@H](C)N1 [Example 139] | 10 to 50 nM |
| C[C@@H]1CN(C(=O)c2cc(Br)cc([N+](=O)[O-])c2N[C@@H]2CCCN(C(=O)c3cc(=O)[nH]c4ccccc34)C2)CCO1 [Example 140] | 10 to 50 nM |
| N[C@@H]1C[C@H](O)CN(C(=O)c2cc(Br)cc([N+](=O)[O-])c2N[C@@H]2CCCC[C@@H]2NC(=O)c2cncc3ccccc23)C1 [Example 141] | 10 to 50 nM |
| O=C(c1cc(Br)cc([N+](=O)[O-])c1N[C@@H]1CCCN(C(=O)C2CNCc3ccccc32)C1)N1CCOCC1 (stereo partly shown) [Example 142] | 10 to 50 nM |
| O=C(N[C@H]1CCCC[C@H]1Nc1c(C(=O)N2CCNCC2)cc(Br)cc1C(F)(F)F)c1cncc2cc(Cl)ccc12 [Example 143] | 10 to 50 nM |
| C[C@@H]1CN(C(=O)c2cc(Br)cc([N+](=O)[O-])c2N[C@@H]2CCCN(C(=O)c3cncc4[nH]ncc34)C2)C[C@H](C)O1 [Example 144] | 10 to 50 nM |
| C[C@@H]1CN(C(=O)c2cc(Br)cc([N+](=O)[O-])c2N[C@@H]2CCCN(C(=O)C3CCCOC3)C2)C[C@H](C)O1 (stereo partly shown) [Example 145] | 10 to 50 nM |
| Cc1cc(C(=O)N2CCC[C@@H](Nc3c(C(=O)N4CCN(CC(F)(F)F)CC4)cc(Br)cc3[N+](=O)[O-])C2)cc(=O)[nH]1 [Example 146] | 10 to 50 nM |
| O=C(N[C@H]1CCCC[C@H]1Nc1c(C(=O)N2CCC(O)CC2)cc(Br)cc1C(F)(F)F)c1cncc2cc(Cl)ccc12 [Example 147] | 10 to 50 nM |
| Cc1cc(C(=O)N2CCC[C@@H](Nc3c(C(=O)N4CC5CC5C4)cc(Br)cc3[N+](=O)[O-])C2)cc(=O)[nH]1 (stereo partly shown) [Example 148] | 50 to 100 nM |
| Cc1cc(C(=O)N2CCC[C@@H](Nc3c(C(=O)N4CCCCC4)cc(Br)cc3[N+](=O)[O-])C2)cc(=O)[nH]1 [Example 149] | 10 to 50 nM |

| Structure (SMILES) | IC50 |
| --- | --- |
| O=C(c1cc(Br)[nH]c(=O)c1)N1CCC[C@@H](Nc2c(C(=O)N3CCC(F)(F)CC3)cc(Br)cc2[N+](=O)[O-])C1 [Example 150] | 50 to 100 nM |
| C[C@@H]1CN(C(=O)c2cc(Br)cc([N+](=O)[O-])c2N[C@@H]2CCCN(C(=O)c3cncc4[nH]cnc34)C2)C[C@H](C)O1 [Example 151] | 10 to 50 nM |
| C[C@@H]1CN(C(=O)c2cc(Br)cc([N+](=O)[O-])c2N[C@@H]2CCOC[C@@H]2NC(=O)c2cncc3ccccc23)C[C@H](C)O1 [Example 152] | 10 to 50 nM |
| CNc1cncc(C(=O)N2C[C@H](Nc3c(C(=O)N4CCN(CCOC)CC4)cc(Br)cc3[N+](=O)[O-])C3(CC3)C2)c1 [Example 153] | 10 to 50 nM |
| Cc1cc(C(=O)N2CC(Nc3c(C(=O)N4CCC5(CCC5)CC4)cc(Br)cc3[N+](=O)[O-])C(F)(F)C2)cc(=O)[nH]1 (stereo not shown) [Example 154] | 50 to 100 nM |
| Cc1cc(C(=O)N2CC(Nc3c(C(=O)N4CCC(C)(C)CC4)cc(Br)cc3[N+](=O)[O-])C(F)(F)C2)cc(=O)[nH]1 (stereo not shown) [Example 155] | 50 to 100 nM |
| Cc1cc(C(=O)N2CC(Nc3c(C(=O)N4CCC5(CCCC5)CC4)cc(Br)cc3[N+](=O)[O-])C(F)(F)C2)cc(=O)[nH]1 (stereo not shown) [Example 156] | 10 to 50 nM |
| Cc1cc(C(=O)N2CC(Nc3c(C(=O)N4CCN(CC(F)(F)F)CC4)cc(Br)cc3[N+](=O)[O-])C(F)(F)C2)cc(=O)[nH]1 (stereo not shown) [Example 157] | 50 to 100 nM |
| O=C1C[C@H](C(=O)N2CCC[C@@H](Nc3c(C(=O)N4CCC5(CCCCC5)CC4)cc(Br)cc3[N+](=O)[O-])C2)CCN1 [Example 158] | 10 to 50 nM |
| Cc1cc(C(=O)N2CCC[C@@H](Nc3c(C(=O)N4CC(O)CC(Cl)C4)cc(Br)cc3[N+](=O)[O-])C2)cc(=O)[nH]1 (stereo partly shown) [Example 159] | < 10 nM |
| Cc1cc(C(=O)N2CC(Nc3c(C(=O)N4CCC5(CCCCC5)CC4)cc(Br)cc3[N+](=O)[O-])C(F)(F)C2)cc(=O)[nH]1 (stereo not shown) [Example 160] | 10 to 50 nM |
| CNc1cncc(C(=O)N2CC(Nc3c(C(=O)N4C[C@@H](C)O[C@@H](C)C4)cc(Br)cc3[N+](=O)[O-])C(F)(F)C2)c1 (stereo partly shown) [Example 161] | 10 to 50 nM |
| CNc1cncc(C(=O)N2C[C@H](Nc3c(C(=O)N4C[C@@H](C)O[C@@H](C)C4)cc(Br)cc3[N+](=O)[O-])C(C)(C)C2)c1 [Example 162] | 10 to 50 nM |
| CC(C)(C)C1CCN(C(=O)c2cc(Br)cc([N+](=O)[O-])c2N[C@@H]2CCCN(C(=O)[C@@H]3CCNC(=O)C3)C2)CC1 [Example 163] | 10 to 50 nM |
| C[C@@H]1CN(C(=O)c2cc(Br)cc([N+](=O)[O-])c2NC2CN(C(=O)c3cncc(I)c3)CC2(F)F)C[C@H](C)O1 (stereo partly shown) [Example 164] | 10 to 50 nM |
| O=C(c1cncc(I)c1)N1CC(Nc2c(C(=O)N3CCCCC3)cc(Br)cc2[N+](=O)[O-])C(F)(F)C1 (stereo not shown) [Example 165] | 10 to 50 nM |
| CNc1cncc(C(=O)N2CC(Nc3c(C(=O)N4CCC(C)(C)CC4)cc(Br)cc3[N+](=O)[O-])C(F)(F)C2)c1 (stereo not shown) [Example 166] | 10 to 50 nM |
| O=C(c1cncc(I)c1)N1CC(Nc2c(C(=O)N3CCOCC3)cc(Br)cc2[N+](=O)[O-])C(F)(F)C1 (stereo not shown) [Example 167] | 10 to 50 nM |
